From patent US9408915B2, “Tolvaptan solid dispersion and its preparation method” (Jiangsu Hengrui Medicine Co., Ltd., priority 2010, dated 2016)

Key:
[1] = white crystal or crystalline powder; cited from earlier work
[2] = Dissolution test (paddle blade method, 0.2% w/v sodium dodecylsulfate aqueous solution); type: physicochemical; settings: powder equal to 100 mg tolvaptan, paddle 100 rpm
Protocol: Q.S. (the amount is equal to 100 mg of tolvaptan) of the powder prepared in Examples 1-10, Comparative examples and the control (crystal material with a particle diameter distribution of 1400 μm and an average diameter of 83 μm) were added to the dissolution tester. 0.2% w/v sodium dodecylsulfate aqueous solution was used as the solvent. The dissolution test was performed using the paddle blade method with the rotation speed of 100 rpm. A sample was taken at 5 min, 10 min, 15 min, 20 min, 30 min, and 45 min to determine the absorbance and calculate the dissolution rate.
The determination of the dissolution rate (%) is as follows: dissolve a certain amount of tolvaptan in methanol; transfer 5 ml of the solution to a 100-ml volumetric flask and then dilute with 0.2% (w/v) sodium dodecylsulfate aqueous solution to give a 20 μg/ml standard solution; the absorbance of the standard solution and the sample solution was determined at wavelengths of 269 nm and 330 nm. The dissolution rate can be obtained by the ratio of the difference of the absorbance of standard solution and the control and the difference of the absorbance of the sample solution and control.

Row | dissolution rate ([2]; 5 min) [%] | dissolution rate ([2]; 10 min) [%] | dissolution rate ([2]; 15 min) [%] | dissolution rate ([2]; 20 min) [%] | dissolution rate ([2]; 30 min) [%] | dissolution rate ([2]; 45 min) [%] | Structure (SMILES) | solubility in water [1]
1 |  |  |  |  |  |  | Cc1ccccc1C(=O)Nc1ccc(C(=O)N2CCC[C@@H](O)c3cc(Cl)ccc32)c(C)c1 [Tolvaptan, 7-chloro-5-hydroxy-1-[2-methyl-4-(2-methylbenzoylamino)benzoyl]-2,3,4,5,-tetrohydro-1H-benzoazepine] | only slightly soluble in water
2 | 15.9 | 19.1 | 22.2 | 25.8 | 30.7 | 42.8 | Cc1ccccc1C(=O)Nc1ccc(C(=O)N2CCC[C@@H](O)c3cc(Cl)ccc32)c(C)c1 [compound 1] | 
